Experimental data reported in patent US4980349A, “Sulphonamides derived from diarylmethanes, the processes for preparing them and pharmaceutical compositions containing them” (SANOFI, priority 1986, dated 1990).
Entries after “also recorded” stand apart in the source; their conditions may differ.

Assays:
[1] = test system: foreign-body (sponge) granuloma in rats; experiment: Experimental granuloma induced by foreign body, histological study; type: in vivo, Wistar rats; conditions: second experiment, day 8; Table XIa
Protocol: (§1) This test consists in studying the subacute cellular phase which is developed in the 8 days which follow the implantation of a foreign body, a sponge of non-resorbable plastic, in the dorsal subcutaneous connective tissue in rats.
The granulomas formed are removed 8 days after the implantation; a histological study is carried out after fixing the tissue and staining sections with hematein/ eosin. The observation is more especially concerned with the cell population of the primary phase of the formation of the granulation tissue: the reticulohistocytic cells, lymphocytes and more especially the macrophages.
(§2) The animals used are Wistar rats weighing 120-140 g and of the same origin, maintained under the same conditions of housing throughout the treatment (8 days).
(§3) The compounds of the invention are administered orally, in a gum suspension, in the morning in a fasted state, using an oesophageal tube.
After 8 days of treatment, the rats are sacrificed by decapitation and the granulomas removed and prepared for the purpose of histological examination.
The experiment conditions are as follows:
The animals are distributed in batches of 10;
Each test product is administered at 2 doses, of 50 and 100 mg, respectively, to 2 batches of 10 animals;
Ketoprofen is used by way of reference product at the same 2 doses and under the same conditions; and
A batch of 10 control animals receives no treatment.
(§4) In this experiment, on the one hand a histological study of the granulomas is performed by sampling on day 8 (results recorded in Table XIa), and on the other hand a study of the weight of the granulomas was performed 10 days after the implantation (results recorded in Table XIb).

[2] = test system: biosynthesis of leukotrienes B4 (LTB4), human polymorphonuclear leukocytes; experiment: Biosynthesis of LTB4, isomers and oxidized metabolites in human polymorphonuclear leukocytes; type: cell-based; conditions: Leukocyte, second experiment, read-out: Percentage inhibition of LTB4 formation
Protocol: Polymorphonuclear leukocytes are isolated from human blood and used during the 6 hours following the withdrawal. The viability of the cells is checked by trypan blue exclusion.
5×10^6 cells are incubated for 10 minutes at 37° C. in the presence of the test product dissolved in DMSO, and are stimulated with ionophore A 23187 (Galbiochem, 10 μM) in PBS buffer at pH 7.4, Ca^2+ and Mg^2+ =1 μM.
100 ng of prostaglandin B2 (PGB2), dissolved in methanol, are added at the end of the reaction to act as an internal standard.
On centrifugation, the culture supernatant is withdrawn. The latter is retrieved under argon and stored at -80° C. until analysed by HPLC.
This analysis is carried out by injecting 250 μl onto a 5 μm ODS ultrasphere column (Beckmann), with a gradient of acetonitrile (20-80%) in water, at pH 7.4.
The amounts of the different products which absorb at 269 nm, i.e. leukotrienes B4 (LTB4), isomers of LTB4 and oxidized metabolites of LTB4, are estimated by comparison with the internal standard.
The test product is used at a concentration of 40 μM.
They are expressed either as a percentage inhibition, or as a percentage increase in the production of LTB4, isomers of LTB4 and oxidized metabolites of LTB4 (designated by +).
The experimental model is the same as that described in Section 2.1. Other products are tested by comparison with the compound of the invention no. 1574, used as a control.

[3] = test system: rat hind foot kaolin-induced arthritis; experiment: Kaolin-induced arthritis test, second experiment, acute phase (volume of the foot at the 8th hour); type: in vivo; conditions: po, 8 h, Table IXa; for change in vivo at 25 mg/kg / change in vivo at 50 mg/kg / change in vivo at 100 mg/kg: 8th hour, read-out: percentage significant decrease in the volume of the treated foot; for ED50: foot volume, read-out: 50% active dose
Protocol: (§5) The […] of 0.05 ml of a sterile 10% strength suspension of kaolin into the metatarsal flexor sheath of the hind foot of a rat initially induces an oedematous reaction. An inflammatory arthritis then forms.
The early oedematous reaction appears from the first hour, and reaches its maximum between the fourth hour and the sixth hour. This is the manifestation of interest. The assessment of the volume of the foot enables the action of substances on the oedematous reaction to be studied. The measurements are carried out using a Giono and Chevilard plethysmometer.
(§6) The test products are administered orally (stomach tube) one hour before the injection of the kaolin.
(§7) In a second experiment, a more elaborate study was performed in order to ascertain the effect of the products, on the one hand on the acute phase of the inflammatory reaction (measured by the volume of the foot at the 8th hour), and on the other hand on the chronic phase (activity measured by the weight of the foot at the 12th hour).
As in the previous experiment, ketoprofen was used as the comparative product:
The results are expressed as a percentage significant decrease in the volume of the treated foot compared with the controls.

[4] = test system: foreign-body (sponge) granuloma in rats; experiment: Experimental granuloma induced by foreign body, weight of the granulomas; type: in vivo, Wistar rats; conditions: Rattus norvegicus, po, 240 h, 10 days after implantation, Table XIb, read-out: decrease in the weight of the granulomas
Protocol: as §1, §2, §3, §4

[5] = test system: rat hind foot kaolin-induced arthritis; experiment: Kaolin-induced arthritis test, second experiment, chronic phase (weight of the foot at the 12th hour); type: in vivo; conditions: po, 12 h, Table IXb; for change in vivo at 25 mg/kg / change in vivo at 50 mg/kg / change in vivo at 100 mg/kg: 12th hour, read-out: percentage significant decrease in the weight of the treated foot; for ED50: foot weight, read-out: 50% active dose
Protocol: as §5, §6, §7
As in the previous experiment, ketoprofen was used as the comparative product: […]

[6] = test system: pain threshold of brewer's yeast inflamed rat hind foot; experiment: Randall and Sellitto's test (analgesic activity); type: in vivo; conditions: second experiment, Table XIIa; for change in vivo at 25 mg/kg: 25 mg/kg oral; for change in vivo at 25 mg/kg / change in vivo at 50 mg/kg / change in vivo at 100 mg/kg: read-out: percentage increase in the mean pain threshold; for change in vivo at 50 mg/kg: 50 mg/kg oral; for change in vivo at 100 mg/kg: 100 mg/kg oral
Protocol: Inflammation increases the sensitivity to pain, in particular to pressure, and analgesics raise the threshold of the sensitivity.
The inflammation is obtained by injecting 0.1 ml of a 20% strength aqueous suspension of brewer's yeast under the plantar aponeurosis of one of the hind feet. […] The pain threshold is assessed in terms of the force necessary and sufficient to initiate a characteristic reaction of withdrawing the foot.
The sensitivity to pain of the inflamed foot reaches a plateau 4 hours after the injection of the brewer's yeast, and then remains stable until the 6th hour. The pain threshold of the inflamed foot in control rats weighing 140 g is reached for pressures of 50 to 60 g, whereas it is around 160 g for the intact foot.
The action of the substance administered orally to series of 10 rats is expressed in terms of the percentage increase in the mean pain threshold, compared with that measured in the rats of a control series of 10 animals which have not received a compound of the invention.
The test products are administered orally (stomach tube) one hour before the injection of brewer's yeast.
The comparative compound used is ketoprofen.

[7] = test system: rat hind foot carragheenin-induced oedema; experiment: Carragheenin-induced oedema test; type: in vivo; conditions: 3 h, second experiment, Table Xa, read-out: percentage inhibition of the inflammation; for change in vivo at 25 mg/kg: 25 mg/kg oral; for change in vivo at 50 mg/kg: 50 mg/kg oral; for change in vivo at 100 mg/kg: 100 mg/kg oral
Protocol: In this test, 10 rats are used per test compound of the invention. Control batches of 10 rats also receive either the comparative compound (ketoprofen) or exclusively an NaCl solution.
The compounds of the invention are administered orally (stomach tube) one hour before the injection of carragheenin.
The carragheenin is suspended at a concentration of 1% in a 0.9% isotonic sodium chloride solution. The volume injected into the rat's foot is 0.20 ml.
The volume of the foot is measured before the injection and 3 hours later. The antagonistic effect of the products towards carragheenin is reflected in the inhibition of the volume of the oedema compared with control rats. The latter receive only isotonic NaCl solution under identical conditions.

SMILES | histological study of the granuloma (inflammatory connective / granulation tissue) [1] | inhibition at 40 µM [2] | change in vivo at 25 mg/kg [3] | change in vivo at 50 mg/kg [3] | change in vivo at 100 mg/kg [3] | ED50 [3] | change in vivo at 25 mg/kg [4] | change in vivo at 50 mg/kg [4] | change in vivo at 100 mg/kg [4] | change in vivo at 25 mg/kg [5] | change in vivo at 50 mg/kg [5] | change in vivo at 100 mg/kg [5] | ED50 [5] | change in vivo at 25 mg/kg [6] | change in vivo at 50 mg/kg [6] | change in vivo at 100 mg/kg [6] | ED50 ([6]; po, analgesia, read-out: 50% active dose) | change in vivo at 25 mg/kg [7] | change in vivo at 50 mg/kg [7] | change in vivo at 100 mg/kg [7]
O=C(O)CCCCCCCCCCCNS(=O)(=O)c1ccc(Cl)c(C(=O)c2ccc(Cl)cc2Cl)c1 [Compound 1764] | Peripheral shell of low density; also recorded: lightly inflammatory | 100% | -45 ± 5% | -55 ± 5% | -60 ± 5% | 50 mg/kg | -45% | -50% | -55% | -45 ± 5% | -52 ± 5% | -58 ± 5% | 50 mg/kg | 50% | 55% | 58% | 25 mg/kg | -45% | -48% | -52%
O=C(O)CCCCCCCCCCNS(=O)(=O)c1ccc(Cl)c(C(=O)c2ccc(Cl)cc2)c1 [Compound 1761] | Diminished production of inflammatory granulation | 100% | -38 ± 5% | -45 ± 5% | -50 ± 5% | 100 mg/kg | -25% | -30% | -45% | -40 ± 5% | -45 ± 5% | -50 ± 5% | 100 mg/kg | 40% | 45% | 50% |  | -30% | -35% | -45%
O=C(O)CCCCCCCCCCCNS(=O)(=O)c1ccc(Cl)cc1C(=O)c1ccccc1Cl [Compound 1755] | Granuloma poorly developed | 100% | -48 ± 5% | -50 ± 5% | -55 ± 5% | 25 mg/kg | -45% | -50% | -55% | -45% | -55% | -58% | 25 mg/kg | 40% | 50% | 55% |  | -45% | -52% | -55%
O=C(O)CCCCCCCCCCNS(=O)(=O)c1ccc(Cl)c(C(=O)c2ccc(Cl)cc2Cl)c1 [Compound 1763] | Peripheral shell of low density | 100% | -35 ± 5% | -45 ± 5% | -50 ± 5% | 100 mg/kg | -15% | -20% | -45% | -38 ± 5% | -40 ± 5% | -48 ± 5% | 100 mg/kg | 40% | 42% | 45% |  | -30% | -35% | -45%
